According to patent publication US20250283049A1, “AGENT FOR CULTURING ORGANOID IN ABSENCE OF EXTRACELLULAR MATRIX” (KEIO UNIVERSITY, priority 2022, published 2025):

How the values were obtained:
Assay type in all cases: cell-based
[1] = test system: human small intestine-derived organoid; experiment: Culture of organoids in absence of Matrigel with LATS kinase inhibitor; cell number by ATP (CellTiter-Glo 3D); conditions: both Lats-IN (10 μM) and MYF01-37 added
Experimental: (§1) In this experimental example, a human small intestine-derived organoid and human large intestine-derived organoid established in the presence of Matrigel (registered trademark) were cultured in the absence of Matrigel (registered trademark) and in the presence of a LATS kinase inhibitor (final concentration: 10 μM), and their dynamics were observed. The procedure was the same as in Experimental Example 1, except that each organoid was cultured in the absence of Matrigel (registered trademark).
The upper left panel of FIG. 3 is a photograph of a control (Ctrl) human small intestine-derived organoid cultured in the absence of Lats-IN, and the upper center panel of FIG. 3 is a photograph of a human small intestine-derived organoid cultured in the presence of Lats-IN. The scale bar is 100 μm. […] The vertical axis of the graph represents luminescence intensity (relative value) indicating the amount of ATP present. […]
(§2) FIG. 8 presents graphs showing the results of measuring the proliferation of the human small intestine-derived and human large intestine-derived organoids in the absence of Lats-IN (Ctrl), in the presence of Lats-IN (Lats-IN), in the presence of Lats-IN and MYF01-37 (Lats-IN+MYF), and in the presence of MYF01-37 (MYF). The cell proliferation was measured by measuring ATP using a commercially available kit (product name “CellTiter-Glo 3D,” Promega Corporation). The vertical axis of the graph represents luminescence intensity (relative value) indicating the amount of ATP present. […]
(§3) FIG. 26 presents graphs showing the results of measuring cell number in each organoid after 6 days of culture by measuring ATP using a commercially available kit (product name “CellTiter-Glo 3D,” Promega Corporation). The vertical axis of the graph represents luminescence intensity (relative value) indicating the amount of ATP present.

[2] = test system: human large intestine-derived organoid; experiment: as above; conditions: both Lats-IN (10 μM) and MYF01-37 added
Experimental: as §1
The lower left panel of FIG. 3 is a photograph of a control (Ctrl) human large intestine-derived organoid cultured in the absence of Lats-IN, and the lower center panel of FIG. 3 is a photograph of a human large intestine-derived organoid cultured in the presence of Lats-IN. The scale bar is 100 μm. The lower right panel of FIG. 3 is a graph showing the results of measuring cell number in the human large intestine-derived organoids cultured in the presence of the control (Ctrl) and Lats-IN. The vertical axis of the graph represents luminescence intensity (relative value) indicating the amount of ATP present. […]
as §2, §3

[3] = test system: human liver cell organoids; experiment: Culturing liver cell organoids in absence of Matrigel; number of viable cells (CellTiter-Glo 3D); conditions: for number of viable cells, higher than control group: day 6 after seeding
Experimental: Human liver cell organoids, established from primary human liver cells, were supplemented with TrypLE Express (Thermo Fisher Scientific) and incubated at 37° C. for 5 minutes to dissociate them into single cells.
The cells were then collected and suspended in proliferation medium separately supplemented with 2, 5, 10, 20, or 50 μM TDI-011536 (CAS No. 2687970-96-1), and […] seeded into an ultra-low attachment 96-well plate at 2,000 cells/well. The preferred seeding density is 2,000 to 4,000 cells/well. In addition, cells in proliferation medium supplemented with no TDI-011536 were prepared as a control.
The proliferation medium was a medium consisting of a basal medium (Advanced DMEM/F-12 medium, 10 mM HEPES, 2 mM GlutaMAX, 100 U penicillin, 100 μg/mL streptomycin) supplemented with 10% afamin-Wnt-3A conditioned medium, 2% R-spondin 1 conditioned medium, 2% Noggin conditioned medium, and 20 ng/ml Oncostatin M.
On day 6 after seeding, the number of viable cells in the human liver cell organoids was measured using a commercially available kit (product name “CellTiter-Glo 3D,” Promega Corporation).

[4] = test system: primary human liver cells (EpCAM-negative); experiment: Establishment of liver cell organoids in absence of Matrigel; conditions: for establishment of human liver cell organoids: proliferation medium with both 20 μM TDI-011536 and 20 ng/ml Oncostatin M
Experimental: Frozen primary human liver cells were suspended in Advanced DMEM/F-12 medium and thawed. Two types of primary human liver cells, Line 1 and Line 2, were used.
Subsequently, each of the thawed primary human liver cells was stained with an APC-labeled mouse anti-human EpCAM antibody, and EpCAM-negative cells were collected using a cell sorter. The collected cells were then suspended in proliferation medium supplemented with 20 μM TDI-011536 and seeded into an ultra-low attachment 96-well plate at 3,000 to 4,000 cells/well. The cells were then cultured to obtain liver cell organoids. In addition, for comparison, cells were also prepared using proliferation medium supplemented with no TDI-011536 or no Oncostatin M.
The passaging of liver cell organoids in the absence of Matrigel (registered trademark) was performed as follows. First, calcium ions and magnesium ions were chelated using 1 mM EDTA/phosphate buffered saline (PBS). Subsequently, the liver cell organoids were supplemented with TrypLE Express (Thermo Fisher Scientific) and incubated at 37° C. for 5 minutes to dissociate them into single cells.
The collected cells were then suspended in proliferation medium supplemented with 20 μM TDI-011536 and seeded into an ultra-low attachment 96-well plate at 2,000 cells/well.
The scale bar is 500 μm. FIG. 24 presents graphs showing the results of measuring changes in cell proliferation over time. In FIG. 24, the vertical axes of the graphs represent cell proliferation (fold increase), and the horizontal axes indicate the number of days of culture. In FIGS. 23 and 24, “OSM” represents Oncostatin M, and “Lats IN” represents the LATS kinase inhibitor (TDI-011536).

Molecule: C=CC(=O)N1CCC(C)(Nc2cccc(C(F)(F)F)c2)C1 (centres unmarked) [MYF01-37]
- cell proliferation (ATP luminescence) when TEAD inhibited [1]: inhibited
- cell proliferation (ATP luminescence) when TEAD inhibited [2]: inhibited

Molecule: O=C(N=c1scc(CO)n1Cc1ccccc1)c1c[nH]c2ncccc12 [TDI-011536]
- number of viable cells, higher than control group ([3]; 20 μM): 16 fold
- number of viable cells, higher than control group ([3]; 50 μM): 17 fold
- number of viable cells (words, FIG. 22) ([3]; adding the LATS kinase inhibitor): increase in the number of viable cells was observed
- duration for which established organoids could be cultured ([4]; 20 μM TDI-011536 and Oncostatin M): at least two months
- establishment of human liver cell organoids [4]: successfully established

B1: Oncostatin M: cytokine of a cytokine family that binds to gp130 (protein, UniProt P13725 26-221, looked up)
Oncostatin-M: AAIGSCSKEYRVLLGQLQKQTDLMQDTSRLLDPYIRIQGLDVPKLREHCRERPGAFPSEETLRGLGRRGFLQTLNATLGCVLHRLADLEQRLPKAQDLERSGLNIEDLEKLQMARPNILGLRNNIYCMAQLLDNSDTAEPTKAGRGASQPPTPTPASDAFQRKLEGCRFLHGYHRFMHSVGRVFSKWGESPNRSRR
- establishment of human liver cell organoids [4]: successfully established
